In patent publication US20150374673A1, “Combination Therapy for the Treatment of Nosocomial Pneumonia” (priority 2013, published 2015):
Several values for one entry are separate records, joined by “and”; a condition that tells them apart may be missing. Equal entries are not always repeated. Entries after “also recorded” stand apart in the source; their conditions may differ. Where two headings read alike, the source gives them in different places.

Columns and labels:
P. aeruginosa [1] = assay: Neutropenic CD-1 mice with experimental pneumonia (lung infection), exposure response of ceftazidime q2h and avibactam q2h or q8h; assay type: in vivo, Pseudomonas aeruginosa; conditions: for % fT > CT1 q2 / % fT > CT1 q8 / TDD AVI q2h / TDD AVI q8h / log TDD AVI q2h / log TDD AVI q8h: Dose CAZ 16 mg/kg q2h; for % fT > CT1 q2 / % fT > CT1 q8: CT 1 mg/L; for TDD AVI q2h / TDD AVI q8h / log TDD AVI q2h / log TDD AVI q8h: static effect; for factor by which daily dose for static effect was lower q2h than q8h: with ceftazidime q2h
Method: CD-1 neutropenic mice were infected with approx. 10^6 cfu in the lung by instillation through the nares under light anaesthesia. […] For avibactam the % time of the dosing interval above a virtual in vivo threshold concentration, CT, % fT>CT, were calculated (CT of 0.25, 1 and 4 mg/L).
Outbred female CD-1 mice (Charles River, Netherlands), 4 to 5 weeks old, weighing 20 to 25 g were used in the experiments. Granulocytopenia was induced by two doses of cyclophosphamide s.c. four days (150 mg/kg) and one day (100 mg/kg) before the infection experiment.
Neutropenic mice were infected with one P. aeruginosa strain per animal. 0.05 mL of bacterial suspension consisting of approximately 10^5-10^6 bacteria was inoculated intra-nasally with a syringe under light anaesthesia with isoflurane. […] All dosing regimens were performed in at least two animals. At t=0 h, 2 mice were humanely sacrificed to determine the initial inoculum just before starting treatment. All other animals were sacrificed at t=24 h unless the welfare of the animals indicated earlier termination was necessary, following animal welfare regulations. Lungs were taken and moved to a pre-cooled 10-mL plastic tube (Transport Tube, Omnilabo, NL) containing 2 mL phosphate buffered saline (PBS; NaCl 8.00 g/L, Na2HPO4*2 H2O 1.44 g/L, KH2PO4 0.26 g/L, pH 7.2-7.4). Subsequently lungs were grounded using an Ultra-Turrax (IKA Labortechnik, Germany). A tenfold dilution series was prepared and 3×10 μL plated (Chromagar, Biomerieux, NL) per dilution. The following day, colonies were counted and the number of cfu per lung calculated.
This regimen was chosen because of the sensitivity to changes in effects of avibactam. The amount of avibactam administered varied in frequency and dose. […] The drug ? effect was determined as the difference between the log10 cfu values at t=24 h and t=0 h (mean value of 2 mice) expressed as dcfu. Free drug concentrations were used in all calculations. […] For avibactam % fT>CT, the % time of the dosing interval above threshold concentration CT were calculated for CT of 0.25, 1 and 4 mg/L. The CT values were chosen based on the activity of avibactam in vitro, 4 mg/L being used in susceptibility testing, but lower concentrations also being active as determined in in vitro checkerboard studies.

P. aeruginosa [2] = assay: In vivo efficacy, ceftazidime directed ELF fT>MIC regimen, neutropenic lung infection model (ICR mice); design: species or system Pseudomonas aeruginosa; conditions: for Change log CFU Mean: 24 h
Method: It has been observed in surveillance studies that the MIC90 for ceftazidime-avibactam against P. aeruginosa is 8 μg/mL (10-12). Given this, there are few isolates with higher MICs and the number that would grow within the murine lung infection model is even less. […] Doses of the previous humanized regimen described above were […] throughout the dosing period and further pharmacokinetic studies were performed. […] Mice were euthanized and serum and BAL samples were collected, as described above, at predetermined times.
For these studies, 9 P. aeruginosa isolates were evaluated against the CAZ regimen in mice that yielded specific ELF fT>MIC. Doses were initiated 2 hours after inoculation of the test organisms ? and all doses were administered as 0.2 mL subcutaneous injections and consisted of three 8 hour dosing intervals (i.e. 24 hours). To serve as control animals, an additional group of mice were administered normal saline at the same volume, route, and frequency as the treatment regimen. The harvesting procedure for all study mice began with euthanization by CO2 exposure followed by cervical dislocation. After sacrifice, lungs were removed and individually homogenized in normal saline. Serial dilutions of the lung homogenate were plated on trypticase soy agar with 5% sheep blood for CFU determination. In addition to the above mentioned treatment and control groups, another group of 6 infected, untreated mice were harvested at the initiation of dosing and served as 0 h controls. Efficacy, designated as the change in bacterial density, was calculated as the change in log10 bacterial CFU obtained for treated mice after 24 h from that of that starting densities observed in 0 h control animals.

P. aeruginosa [3] = assay: In vivo efficacy, ceftazidime human simulated regimen, neutropenic lung infection model (ICR mice); design: species or system Pseudomonas aeruginosa; conditions: 24 h
Method: Groups of mice were administered the ceftazidime regimen beginning two hours after the initiation of infection. All doses were administered as 0.2 mL subcutaneous injections and consisted of three 8-hour dosing intervals (i.e. 24 hours). To serve as control animals, an additional group of mice were administered normal saline at the same volume, route, and frequency as the treatment regimen. Harvesting and processing of lungs from each animal was done as previously described and efficacy was defined as the change in bacterial density, calculated as the change in log10 bacterial CFU obtained for treated mice after 24 h from that of that starting densities observed in 0 h control animals.

S. aureus = assay: Initial MIC, microbroth dilution (CLSI), avibactam 4 mg/L; assay type: cell-based; conditions: Staphylococcus aureus, read-out: MIC
From the text: All MIC determinations including those performed in the checkerboard assay were done in cation-adjusted Mueller-Hinton broth (purchased from Becton Dickinson, Oxford UK). […]

Gram-positive isolates = assay: MIC alone compared with MIC in presence of Cmax and 0.5×Cmax of colistin, all Gram-positive isolates; assay type: cell-based; conditions: with Cmax and 0.5×Cmax of colistin
From the text: A mean FICI was taken from each combination checkerboard and interpreted according to accepted criteria. […] Four highly-expressed AmpC, eight extended-spectrum beta-lactamase (ESBL) including two CTX-M-15 and five KPC producing Enterobacteriaceae and P. aeruginosa were included as well as representatives from each species with basal MICs. Three S. aureus and three E. faecalis were also included.

[4] = q2h and q8h, strains 11 and 18, lung

SMILES: NC(=O)[C@@H]1CC[C@@H]2CN1C(=O)N2OS(=O)(=O)[O-].[Na+] [avibactam, [(2S,5R)-2-carbamoyl-7-oxo-1,6-diazabicyclo[3.2.1]octan-6-yl]hydrogen sulfate]
- efficacy by dosing frequency (P. aeruginosa [1]; avibactam q2h or q8h with ceftazidime q2h, lung): q2h regimen was more efficacious than the q8h regimen
- effect on static % fT>MIC of ceftazidime (P. aeruginosa [1]; lung infection, all strains): reduced
- % fT > CT1 q2, mean (P. aeruginosa [1]; mean of strains 18 and 11 (sd 2.7), lung infection, avibactam q2h): 21.6%
- % fT > CT1 q8, mean (P. aeruginosa [1]; mean of strains 18 and 11 (sd 3.4), lung infection, avibactam q8h): 18.5%
- overall mean % fT>CT 1 mg/L for static effect (P. aeruginosa [1]; [4]): 20.1%
- range of % fT>CT 1 mg/L for static effect (P. aeruginosa [1]; [4]): 16.1-23.5
- % fT > CT1 q2 (P. aeruginosa [1]; strain 11, lung infection, avibactam q2h): 19.7%
- % fT > CT1 q8 (P. aeruginosa [1]; strain 11, lung infection, avibactam q8h): 20.9%
- TDD AVI q2h (P. aeruginosa [1]; strain 11, lung infection): 45.65 mg/kg
- TDD AVI q8h (P. aeruginosa [1]; strain 11, lung infection): 463.29 mg/kg
- log TDD AVI q2h (P. aeruginosa [1]; strain 11, lung infection): 1.66 mg/kg
- log TDD AVI q8h (P. aeruginosa [1]; strain 11, lung infection): 2.67 mg/kg
- factor by which daily dose for static effect was lower q2h than q8h (P. aeruginosa [1]; strain 11, lung): 2.7
- % fT > CT1 q2 (P. aeruginosa [1]; strain 18, lung infection, avibactam q2h): 23.5%
- % fT > CT1 q8 (P. aeruginosa [1]; strain 18, lung infection, avibactam q8h): 16.1%
- TDD AVI q2h (P. aeruginosa [1]; strain 18, lung infection): 56.65 mg/kg
- TDD AVI q8h (P. aeruginosa [1]; strain 18, lung infection): 150.57 mg/kg
- log TDD AVI q2h (P. aeruginosa [1]; strain 18, lung infection): 1.75 mg/kg
- log TDD AVI q8h (P. aeruginosa [1]; strain 18, lung infection): 2.18 mg/kg
- factor by which daily dose for static effect was lower q2h than q8h (P. aeruginosa [1]; strain 18, lung): 10.1
- % fT>CT 1 mg/L estimates for stasis over 24 h (P. aeruginosa [1]; the other two of strains 7, 5, 19 and 1 (not 1 and 19), ceftazidime q2h, lung): 21.4% and 19.4%
- % fT>CT 1 mg/L estimates (P. aeruginosa [1]; two control strains, lung): 22.4% and 21.6%

SMILES: CC(C)(O/N=C(\C(=O)N[C@@H]1C(=O)N2C(C(=O)[O-])=C(C[n+]3ccccc3)CS[C@H]12)c1csc(N)n1)C(=O)O [ceftazidime, (6R,7R)-7-[[(2Z)-2-(2-amino-1,3-thiazol-4-yl)-2-(1-hydroxy-2-methyl-1-oxopropan-2-yl)oxyiminoacetyl]amino]-8-oxo-3-(pyridin-1-ium-1-ylmethyl)-5-thia-1-azabicyclo[4.2.0]oct-2-ene-2-carboxylate pentahydrate]
- activity in neutropenic lung infection model (P. aeruginosa [2]; directed ELF fT>MIC regimen, isolates with MICs of 32 μg/mL): Activity was observed
- activity in neutropenic lung infection model (P. aeruginosa [2]; in vivo): Efficacy was variable; also recorded: little to no activity
- Change log CFU Mean (P. aeruginosa [2]; isolate PSA 968, control 0 h 5.98, 24 h 9.76): 4.45 log CFU
- Change log CFU Mean (P. aeruginosa [2]; isolate PSA 1382, control 0 h 5.91, 24 h 8.64): 6.42 log CFU
- Change log CFU Mean (P. aeruginosa [2]; isolate PSA 1383, control 0 h 5.77, 24 h 7.29): 3.73 log CFU
- Change log CFU Mean (P. aeruginosa [2]; isolate PSA 1384, control 0 h 5.86, 24 h 7.61): 4.4 log CFU
- Change log CFU Mean (P. aeruginosa [2]; isolate PSA 1386, control 0 h 5.79, 24 h 9.67): 5.98 log CFU
- Change log CFU Mean (P. aeruginosa [2]; isolate PSA 1387, control 0 h 6.39, 24 h 9.45): 4.23 log CFU
- Change log CFU Mean (P. aeruginosa [2]; isolate PSA 1388, control 0 h 5.86, 24 h 8.39): 5.54 log CFU
- Change log CFU Mean (P. aeruginosa [2]; isolate PSA 1389, control 0 h 5.68, 24 h 9.67): 6.3 log CFU
- Change log CFU Mean (P. aeruginosa [2]; isolate PSA 1394, control 0 h 5.58, 24 h 7.73): 5.96 log CFU
- Change log CFU Mean (P. aeruginosa [3]; isolate PSA 1-25, control 0 h 6.21, 24 h 10.01): 6.42 log CFU
- Change log CFU Mean (P. aeruginosa [3]; isolate PSA 3-9, control 0 h 6.45, 24 h 7.77): 6.48 log CFU
- Change log CFU Mean (P. aeruginosa [3]; isolate PSA 4-32, control 0 h 5.56, 24 h 9.34): 3.57 log CFU
- Change log CFU Mean (P. aeruginosa [3]; isolate PSA 4-36, control 0 h 6.53, 24 h 9.72): 5.01 log CFU
- Change log CFU Mean (P. aeruginosa [3]; isolate PSA 4-84, control 0 h 6.16, 24 h 9.66): 4.88 log CFU
- Change log CFU Mean (P. aeruginosa [3]; isolate PSA 8-16, control 0 h 5.93, 24 h 9.94): 5.38 log CFU
- Change log CFU Mean (P. aeruginosa [3]; isolate PSA 22, control 0 h 5.99, 24 h 9.15): 4.83 log CFU
- Change log CFU Mean (P. aeruginosa [3]; isolate PSA 28-19, control 0 h 6.46, 24 h 9.8): 5.07 log CFU
- Change log CFU Mean (P. aeruginosa [3]; isolate PSA 37-8, control 0 h 6.02, 24 h 8.26): 3.8 log CFU
- MIC (S. aureus; isolate 22 S. aureus Basal MICs): 8 µg/mL
- MIC (S. aureus; isolate 23 S. aureus Basal MICs, Penicillinase+): 16 µg/mL
- MIC (S. aureus; isolate 24 S. aureus Basal MICs, Penicillinase+): 8 µg/mL
- MIC alone and in combination (Gram-positive isolates): remained within one doubling dilution in all cases
